Details of data set [1]: method as in PMID 23884130. The following applies: 3-hydroxynaphthalene-2-carboxanilide series; cited from earlier work.
Data set [2] deals with Staphylococcus aureus ATCC 29213. Also noted: method as in PMID 23884130. The following applies: previous study; cited from earlier work.
For data set [3], the system named is methicillin-resistant Staphylococcus aureus (MRSA) 63718. Also on record: method as in PMID 23884130. The following applies: previous study, all the MRSA strains; cited from earlier work.
The subject of data set [4] is methicillin-resistant Staphylococcus aureus SA 630. Also noted: method as in PMID 23884130. The following applies: previous study, all the MRSA strains; cited from earlier work.
Data set [5] has as its system methicillin-resistant Staphylococcus aureus SA 3202. Also noted: method as in PMID 23884130. The following applies: previous study, all the MRSA strains; cited from earlier work.
Data set [6] in a line: Lipophilicity determination by RP-HPLC (capacity factor log k). The data set is classed as physicochemical. As to conditions: isocratic, MeOH 60%/H2O 40%, C18. As to the method:
A HPLC system Agilent 1200 equipped with DAD detector (Agilent, Santa Clara, CA, USA) was used. A chromatographic column Symmetry® C18 5 μm, 4.6 × 250 mm, Part No. WAT054275, (Waters Corp., Milford, MA, USA) was used. The HPLC separation process was monitored and evaluated by EZChrom Elite software ver. 3.3.2 (Agilent). Isocratic elution by a mixture of MeOH p.a. (60%) and H2O-HPLC Mili-Q grade (40%) as a mobile phase was used. The total flow of the column was 1.0 mL/min, injection 20 μL, column temperature 40 °C and sample temperature 10 °C. The detection wavelength 210 nm was chosen. The KI methanolic solution was used for the dead time (tD) determination. Retention times (tR) were measured in minutes. The capacity factors k were calculated according to formula k = (tR − tD)/tD, where tR is the retention time of the solute, whereas tD denotes the dead time obtained using an unretained analyte. Log k, calculated from the capacity factor k, is used as the lipophilicity index converted to log P scale.

Data set [7] has as its system photosynthetic electron transport (PET) in spinach chloroplasts. The experiment in a line: Inhibition of photosynthetic electron transport (PET) in spinach chloroplasts. Type of data set: biochemical, Spinacia oleracea L. The following applies: DCPIP photoreduction. How it is done: Chloroplasts were prepared from spinach (Spinacia oleracea L.) according to Masarovicova and Kralova. The inhibition of photosynthetic electron transport (PET) in spinach chloroplasts was determined spectrophotometrically (Genesys 6, Thermo Electron Scientific Instruments, Madison, WI, USA), using an artificial electron acceptor 2,6-dichlorophenol-indophenol (DCPIP) according to Kralova et al., and the rate of photosynthetic electron transport was monitored as a photoreduction of DCPIP. The measurements were carried out in phosphate buffer (0.02 mol/L, pH 7.2) containing sucrose (0.4 mol/L), MgCl2 (0.005 mol/L) and NaCl (0.015 mol/L). The chlorophyll content was 30 mg/L in these experiments and the samples were irradiated (~100 W/m^2 with 10 cm distance) with a halogen lamp (250 W) using a 4 cm water filter to prevent warming of the samples (suspension temperature 22 °C). The studied compounds were dissolved in DMSO due to their limited water solubility. […] The inhibitory efficiency of the studied compounds was expressed by IC50 values, i.e., by molar concentration of the compounds causing 50% decrease in the oxygen evolution rate relative to the untreated control.

Data set [8] has as its system Mycobacterium marinum CAMP 5644. The experiment in a line: In vitro antimycobacterial evaluation (broth dilution MIC). Type of data set: cell-based. As to conditions: for MIC: Mycobacterium marinum, CAMP5644, 504 h, M. marinum CAMP 5644, 21 days, 28 °C. Background: Broth dilution looks for growth in wells or tubes with falling amounts of substance.
The test system of another data set is M. kansasii DSM 44162. Described as above. Type of data set: cell-based. The following applies: Mycobacterium kansasii, DSM44162, 168 h; M. kansasii DSM 44162, 7 days, 37 °C.
For another data set, the system named is M. smegmatis ATCC 700084. The data set is described as above. The data set is classed as cell-based, Mycobacterium smegmatis. As to conditions: Mycolicibacterium smegmatis, ATCC700084, 72 h; M. smegmatis ATCC 700084, 3 days, 37 °C.
Data set [9] relates to Mycobacterium avium subsp. paratuberculosis (CIT03). The experiment in a line: In vitro antimycobacterial evaluation (alamarBlue MIC). Type of data set: cell-based. The following applies: 264 h, M. avium paratuberculosis CIT03, 11 days, 37 °C. As to the method: A well characterised clinical isolate of Mycobacterium avium subsp. paratuberculosis (CIT03) was grown in Middlebrook broth (MB), supplemented with Oleic-Albumin-Dextrose-Catalase supplement (OADC, Becton, Dickinson & Comp., Franklin Lakes, NJ, USA) and mycobactin J (2 µg/mL). Identification of this isolate was performed using biochemical and molecular protocols. At log phase growth, a culture sample (10 mL) was centrifuged at 15,000 rpm/20 min using a bench top centrifuge (Model CR 4-12, Jouan Inc., Winchester, VA, USA). Following removal of the supernatant, the pellet was washed in fresh Middlebrook 7H9GC broth and re-suspended in fresh supplemented MB (10 mL). The turbidity was adjusted to match McFarland standard No. 1 (3 × 10^8 cfu) with MB broth. A further 1:20 dilution of the culture was then performed in MB broth. The antimicrobial susceptibility of the mycobacterial species was investigated in a 96-well plate format. In these experiments, sterile deionised water (300 µL) was added to all outer-perimeter wells of the plates to minimize evaporation of the medium in the test wells during incubation. Each evaluated compound (100 µL) was incubated with each of the mycobacterial species (100 µL). Dilutions of each compound were prepared in duplicate. For all synthesized compounds, final concentrations ranged from 1,000 µg/mL to 8 µg/mL. All compounds were prepared in DMSO and subsequent dilutions were made in supplemented MB. The plates were sealed with parafilm and incubated at 37 °C, for 11 days in the case of M. avium paratuberculosis. Following incubation, a 10% addition of alamarBlue (AbD Serotec, Kidlington, UK) was mixed into each well and readings at 570 nm and 600 nm were taken, initially for background subtraction and subsequently after 24 h re-incubation. The background subtraction is necessary for strongly coloured compounds, where the colour may interfere with the interpretation of any colour change. For non-interfering compounds, a blue colour in the well was interpreted as an absence of growth and a pink colour was scored as growth. The minimum inhibitory concentrations (MICs) were initially defined as the lowest concentration which prevented a visual colour change from blue to pink.
The MICs were defined as the lowest concentration of the compound at which no visible bacterial growth was observed. The MIC value is routinely and widely used in bacterial assays and is a standard detection limit according to the Clinical and Laboratory Standards Institute (CLSI). Isoniazid (Sigma-Aldrich) was used as reference antimycobacterial drug.

Data set [10] concerns human monocytic leukemia THP-1 cells. The experiment in a line: In vitro cytotoxicity assay (LDH). As to conditions: treatment with 20 µmol/L, 24 h. Type of data set: cell-based. How it is done:
Human monocytic leukemia THP-1 cells were obtained from the European Collection of Cell Cultures (ECACC, Salisbury, UK; Methods of characterization: DNA Fingerprinting (Multilocus probes) and isoenzyme analysis). These cells were routinely cultured in RPMI 1640 (Lonza, Verviers, Belgium) medium supplemented with 10% fetal bovine serum (FBS, Sigma-Aldrich), 2% L-glutamine, 1% penicillin and streptomycin (Lonza, Verviers, Belgium) at 37 °C with 5% CO2. Cells were passaged at approximately 1 week intervals. Cells were routinely tested for the absence of mycoplasma (Hoechst 33258 staining method). The tested compounds were dissolved in DMSO (Sigma-Aldrich) and added in five increasing concentrations to the cell suspension in the culture medium. The maximum concentration of DMSO in the assays never exceeded 0.1%. Subsequently, the cells were incubated for 24 h at 37 °C with 5% CO2 to various compound concentrations ranging from 0.37 to 20 μmol/L in RPMI 1640 medium. Cell toxicity was determined using a Cytotoxicity Detection Kit^PLUS Lactate dehydrogenase (LDH) assay kit (Roche Diagnostics, Mannheim, Germany) according to the manufacturer’s instructions, as described previously. […] All data were evaluated using GraphPad Prism 5.00 software (GraphPad Software, San Diego, CA, USA).

Data set [11] relates to spinach chloroplasts (photosystem II). The experiment in a line: Chlorophyll a and aromatic amino acids fluorescence in spinach chloroplasts. The data set is classed as biochemical, Spinacia oleracea L. How it is done:
The fluorescence emission spectra of chlorophyll a (Chla) and aromatic amino acids (AAA) in spinach chloroplasts were recorded on fluorescence spectrophotometer F-2000 (Hitachi, Tokyo, Japan) using excitation wavelength λex = 436 nm for monitoring fluorescence of Chla and λex = 275 nm for monitoring AAA fluorescence, excitation slit 20 nm and emission slit 10 nm. The samples were kept in the dark for 2 min before measuring. The phosphate buffer used for dilution of the chloroplast suspension was the same as described above. Due to low aqueous solubility the compounds were added to chloroplast suspension in DMSO solution. The DMSO concentration in all samples was the same as in the control (10%). The chlorophyll concentration in chloroplast suspension was 10 mg/L.

Data set [12] has as its system methicillin-resistant Staphylococcus aureus SA 3202. The experiment in a line: In vitro antibacterial susceptibility testing (broth dilution MIC). Type of data set: cell-based. As to conditions: MRSA, clinical isolate SA 3202, 24 h, 37 °C, read-out: MIC MRSA 3202. As to the method:
(§1) The synthesized compounds were evaluated for in vitro antibacterial activity against representatives of multidrug-resistant bacteria, clinical isolates of methicillin-resistant Staphylococcus aureus (MRSA) 63718, SA 630 and SA 3202 that were obtained from the National Institute of Public Health, Prague, Czech Republic. Staphylococcus aureus ATCC 29213 was used as a reference and quality control strain. Ampicillin (Sigma-Aldrich) was used as the standard. Prior to testing, each strain was passaged onto nutrient agar (Oxoid, Hampshire, UK) with 5% of bovine blood, and bacterial inocula were prepared by suspending a small portion of bacterial colony in sterile phosphate buffered saline (pH 7.2–7.3). The cell density was adjusted to 0.5 McFarland units using a densitometer (Densi-La-Meter, LIAP, Riga, Latvia). The final inoculum was made by 1:20 dilution of the suspension with the Mueller-Hinton broth (MH broth). […] The final concentrations of the evaluated compounds ranging from 256 μg/mL to 0.008 μg/mL. The broth dilution micro-method modified according to NCCLS guidelines in MH broth was used to determine the minimum inhibitory concentration (MIC). Drug-free controls, sterility controls and controls consisted of MH broth and DMSO alone were included. The determination of results was performed visually after 24 h of static incubation in the darkness at 37 °C in an aerobic atmosphere. The MICs were defined as the lowest concentration of the compound at which no visible bacterial growth was observed.

Data set [13] concerns methicillin-resistant Staphylococcus aureus SA 630. Described as above. The data set is classed as cell-based. The following applies: MRSA, clinical isolate SA 630, 24 h, 37 °C. How it is done: as §1
Data set [14] relates to human monocytic leukemia THP-1 cells. The following applies: assessed in this line formerly; cited from earlier work.

≈ marks a conversion by molar mass, not a printed value. Read-outs that look alike come from different tables or passages of the source.

The text below walks through data of publication PMC6270026, “Antibacterial and Herbicidal Activity of Ring-Substituted 2-Hydroxynaphthalene-1-carboxanilides” (Molecules, 2013).

One may read the IC50 as the point on the concentration scale where inhibition reaches its midpoint. Read a low IC50 as greater potency. What is called MIC is the lowest concentration found to suppress growth.

Turning to `COc1ccccc1NC(=O)c1cc2ccccc2cc1O` [3-hydroxy-N-(2-methoxyphenyl)naphthalene-2-carboxamide], the log k in data set [1] is given as 0.69. For the same compound, the “MIC against S. aureus” value in data set [2] is 55.0 µM (≈ 16.1 µg/mL). Further, the “MIC against MRSA strains (MRSA 63718)” value in [3] was 55.0 µM (≈ 16.1 µg/mL). The “MIC against MRSA strains (SA 630)” value in [4] was 55.0 µM (≈ 16.1 µg/mL). Besides, the “MIC against MRSA strains (SA 3202)” value in data set [5] was 55.0 µM (≈ 16.1 µg/mL).
Consider `O=C(c1cc(O)cc2ccccc12)N(c1ccccc1)c1ccccc1` [3-hydroxy-N-phenylnaphthalene-1-carboxanilide], for which, in [1], the log k is recorded as 0.6310.
Take `O=C(Nc1ccccc1)c1c(O)ccc2ccccc12` [Compound 1, 2-Hydroxy-N-phenylnaphthalene-1-carboxamide]: the log k in data set [6] is given as 1.3016. For the same compound, half-maximal inhibition in data set [7] (IC50) required 28.9 µM. The minimum inhibitory concentration (MIC) in data set [8] was determined as 60.7 µM (≈ 16 µg/mL); in the data set on M. kansasii DSM 44162, 15.2 µM (≈ 4 µg/mL); in the data set on M. smegmatis ATCC 700084 it was 486 µM (≈ 128 µg/mL); in [9] it was 950 µM (≈ 250 µg/mL). For the same compound, the “lethal effect on THP-1 cells” value in data set [10] is recorded as “did not lead to significant lethal effects”. For the same compound, in [11] (c = 0.012-0.117 mmol/L, λex 275 nm), the “aromatic amino acids (AAA) fluorescence at 334 nm” value is recorded as “strong decline”. The “chlorophyll a fluorescence emission band at 686 nm” value in data set [11] (c = 0.059-0.468 mmol/L, λex 436 nm) is recorded as “decreased intensity”.
The compound `O=C(Nc1ccccc1[N+](=O)[O-])c1c(O)ccc2ccccc12` [Compound 8a, 2-Hydroxy-N-(2-nitrophenyl)naphthalene-1-carboxamide] registered a log k in [6] of 0.8501. Besides, 121 µM corresponded to half-maximal inhibition in data set [7] (IC50). For the same compound, the MIC in data set [12] was found to be 52 µM (≈ 16 µg/mL); in [13], 104 µM (≈ 32.1 µg/mL); in data set [8], 104 µM (≈ 32.1 µg/mL); in the data set with M. kansasii DSM 44162, 51.9 µM (≈ 16 µg/mL); in [9] it was 195 µM (≈ 60.1 µg/mL). For the same compound, the “lethal effect on THP-1 cells” value in [10] is “did not lead to significant lethal effects”.
`O=C(Nc1cccc([N+](=O)[O-])c1)c1c(O)ccc2ccccc12` [Compound 8b, 2-Hydroxy-N-(3-nitrophenyl)naphthalene-1-carboxamide]: the log k in data set [6] was 0.9187. For the same compound, half-maximal inhibition in [7] (IC50) required 86.4 µM. Moreover, the MIC is around 52 µM (≈ 16 µg/mL) in [8], 104 µM (≈ 32.1 µg/mL) in the data set with M. kansasii DSM 44162 and 405 µM (≈ 125 µg/mL) in [9]. Moreover, the “fold higher activity against M. marinum than isoniazid” value in data set [8] (ratio of MIC to isoniazid) is given as “about 9 fold”. Besides, the “lethal effect on THP-1 cells” value in [10] was “did not lead to significant lethal effects”.
As for `CC[C@@]1(O)C(=O)OCc2c1cc1n(c2=O)Cc2cc3ccccc3nc2-1` [camptothecin], the LD50 in data set [14] is 0.16 ± 0.07 µmol/L.
